Measurements from US20100233172A1, “METHODS OF INHIBITING QUIESCENT TUMOR PROLIFERATION” (Bristol-Myers Squibb Company, priority 2008, published 2010).

Experiments:
HCT-116 cells [1] = experiment: Clonogenic assay, proliferating (P) versus quiescent (Q) cells; format: cell-based, human; conditions: for IC90: Homo sapiens, HCT-116, P cells, 16 hr treatment; for P/Q selectivity: ratio derived from the IC90s on HCT116 cells
Protocol: Tumor Cell Lines. […] Proliferating cultures were set up by plating 3×10^5 cells in 10 ml of RPMI medium in T75 flasks on day 0 and treated with compounds (dissolved in fresh medium) on day 2 or 3. Quiescent cultures were set up by plating 3×10^5 cells in 10 ml of RPMI media in T75 flasks on day 0, changing medium on day 2, and treated with drugs dissolved in spent media on day 6 for 17 hr.
Clonogenic Assay. […] After 10 days incubation at 37° C., colonies were stained with crystal violet.

HCT/VM46 xenograft = experiment: HCT/VM46 multidrug resistant colon carcinoma xenograft; format: in vivo, mice
Description: FIG. 5. […] Panel c. […] Therefore, the consistently observed synergy of the combinations is highly sequence dependent, in vitro and in vivo.

FT = FT (Homo sapiens, UniProt P49354+P49356); experiment: Prenyltransferase enzyme assay, FT; format: biochemical
Protocol: (§1) Enzyme Assays. Prenyltransferases and H-Ras processing inhibition were carried out as described earlier (Hunt et al., Rose et al., Lackner et al., Manne et al., and Lombardo et al).

HCT116 xenografts = HCT116 xenografts in nude mice; format: in vivo; conditions: at MTD: 600 mg/kg; for Activity in vivo, cures: cures per mice
[2] = target: T1, Rab geranylgeranyl transferase (GGTII) (Homo sapiens, UniProt P53611+Q92696); experiment: Prenyltransferase enzyme assay, RabGGT; format: biochemical
T1 sequence (Q92696 1-567): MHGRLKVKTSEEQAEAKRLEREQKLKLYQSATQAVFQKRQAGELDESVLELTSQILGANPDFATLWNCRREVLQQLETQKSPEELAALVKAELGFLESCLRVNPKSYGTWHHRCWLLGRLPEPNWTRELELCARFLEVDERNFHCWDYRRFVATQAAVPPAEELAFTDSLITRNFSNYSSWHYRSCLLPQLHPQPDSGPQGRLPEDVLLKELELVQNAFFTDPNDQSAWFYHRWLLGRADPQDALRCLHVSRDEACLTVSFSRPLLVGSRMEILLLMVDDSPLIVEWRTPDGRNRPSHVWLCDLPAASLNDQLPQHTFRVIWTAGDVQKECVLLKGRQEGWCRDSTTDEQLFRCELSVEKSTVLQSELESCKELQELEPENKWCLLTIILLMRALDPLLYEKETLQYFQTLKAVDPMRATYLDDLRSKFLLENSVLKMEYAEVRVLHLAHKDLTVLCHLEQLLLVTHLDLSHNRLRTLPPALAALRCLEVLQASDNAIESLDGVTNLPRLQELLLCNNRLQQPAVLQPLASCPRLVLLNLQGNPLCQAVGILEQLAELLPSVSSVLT
T1 sequence (P53611 1-331): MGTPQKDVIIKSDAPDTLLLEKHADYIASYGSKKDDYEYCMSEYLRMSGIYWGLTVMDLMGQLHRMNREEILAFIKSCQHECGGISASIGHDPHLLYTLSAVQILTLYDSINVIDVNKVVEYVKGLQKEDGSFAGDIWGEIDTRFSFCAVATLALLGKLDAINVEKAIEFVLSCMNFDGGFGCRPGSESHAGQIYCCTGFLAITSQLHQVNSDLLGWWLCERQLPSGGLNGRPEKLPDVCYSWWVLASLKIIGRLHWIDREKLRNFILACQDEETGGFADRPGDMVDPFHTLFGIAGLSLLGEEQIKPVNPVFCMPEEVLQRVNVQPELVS
Protocol: as §1

[3] = target: geranylgeranyl transferase I (GGTI) (Homo sapiens, UniProt P49354+P53609); experiment: Prenyltransferase enzyme assay, GGTI; format: biochemical
Protocol: as §1

[4] = target: T2, Programmed cell death (AIF) (Homo sapiens, UniProt O95831); experiment: Affinity capture on monomeric avidin, ALL cell fractions, MS peptide hits; format: binding
T2 construct: Two peptides were detected for AIF in band B of the BMS-844472 eluates that were absent from the control eluates; endogenous in cells; host or cells: ALL cells (quiescent), nuclear and cytoplasmic fractions
Protocol: (§2) An important first step was to establish a source of cells that grew to high density and could remain viable even without replenishing the medium, so that they would be quiescent (Q). After several trials, the inventors settled on ALL cells. Nuclear and cytoplamic fractions were separated by low speed centrifugation after cell lysis with mild detergent. The nuclear fractions were treated with 0.5 M KCl and the chromatin spun out at 100,000 g for one hour. The cytoplasmic fraction was also spun at 100,000 g for one hour, glycerol was added to 20% and fractions frozen at −80 C. […] The fractions were loaded onto 1 ml columns of monomeric avidin beads that had been pretreated with biotin to block accessible sites and washed with pH 2.8 glycine buffer and the incubation buffer (see FIG. 10). Proteins were eluted from both columns with buffer containing 2 mM biotin, 10% TCA precipitated and analyzed on polyacrylamide gels. Bands A and B from the 1 mm gel shown in FIG. 11 were excised out and submitted to the proteomics group for analysis.

Protein phosphatase 1G = target: T3, Protein phosphatase 1G (Homo sapiens, UniProt O15355); experiment: as above; format: binding
T3 construct: endogenous in cells; host or cells: ALL cells (quiescent), nuclear and cytoplasmic fractions
T3 sequence (O15355 1-546): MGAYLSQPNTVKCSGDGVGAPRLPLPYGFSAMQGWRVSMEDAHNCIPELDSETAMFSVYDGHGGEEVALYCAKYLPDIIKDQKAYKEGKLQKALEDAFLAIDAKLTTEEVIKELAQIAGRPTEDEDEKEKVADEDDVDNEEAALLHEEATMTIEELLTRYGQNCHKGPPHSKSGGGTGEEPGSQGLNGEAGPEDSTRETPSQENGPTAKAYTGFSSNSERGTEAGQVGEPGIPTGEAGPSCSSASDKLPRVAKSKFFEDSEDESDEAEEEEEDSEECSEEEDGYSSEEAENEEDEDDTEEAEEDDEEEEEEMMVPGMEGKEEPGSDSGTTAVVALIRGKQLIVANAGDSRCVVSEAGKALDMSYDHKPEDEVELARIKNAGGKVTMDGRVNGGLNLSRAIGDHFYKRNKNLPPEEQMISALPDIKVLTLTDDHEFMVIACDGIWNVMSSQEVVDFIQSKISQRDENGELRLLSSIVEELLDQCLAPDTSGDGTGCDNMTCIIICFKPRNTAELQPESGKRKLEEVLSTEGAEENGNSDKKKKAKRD
Protocol: as §2

[5] = target: T4, Stress induced-phosphoprotein 1 (Hsp70/Hsp90-organizing protein) (Homo sapiens, UniProt P31948); experiment: as above; format: binding
T4 construct: endogenous in cells; host or cells: ALL cells (quiescent), nuclear and cytoplasmic fractions
Protocol: as §2

HCT-116 cells [6] = experiment: Flow cytometry of HCT-116 P and Q cells (BrdU, p85 PARP, activated caspase 3); format: cell-based, human
Protocol: Untreated HCT-116 cells in P or in Q state (Panel a) were analyzed by flow cytometry. The y axis represents cell numbers and the x axis DNA content. […] The x axis indicates the level of activated caspase while the y axis represents percentage of total fluorescence adjusted to 100%. […] The x axis indicates the level of BrdU incorporation, while the y axis indicates the p85 cleaved PARP cells.

[7] = tested on: cross-linker site in HCT-116 quiescent cell extracts; experiment: Cross-linking competition with tritium labeled azido analogue BMS-540864; format: binding, human

T4 sequence (P31948 whole entry): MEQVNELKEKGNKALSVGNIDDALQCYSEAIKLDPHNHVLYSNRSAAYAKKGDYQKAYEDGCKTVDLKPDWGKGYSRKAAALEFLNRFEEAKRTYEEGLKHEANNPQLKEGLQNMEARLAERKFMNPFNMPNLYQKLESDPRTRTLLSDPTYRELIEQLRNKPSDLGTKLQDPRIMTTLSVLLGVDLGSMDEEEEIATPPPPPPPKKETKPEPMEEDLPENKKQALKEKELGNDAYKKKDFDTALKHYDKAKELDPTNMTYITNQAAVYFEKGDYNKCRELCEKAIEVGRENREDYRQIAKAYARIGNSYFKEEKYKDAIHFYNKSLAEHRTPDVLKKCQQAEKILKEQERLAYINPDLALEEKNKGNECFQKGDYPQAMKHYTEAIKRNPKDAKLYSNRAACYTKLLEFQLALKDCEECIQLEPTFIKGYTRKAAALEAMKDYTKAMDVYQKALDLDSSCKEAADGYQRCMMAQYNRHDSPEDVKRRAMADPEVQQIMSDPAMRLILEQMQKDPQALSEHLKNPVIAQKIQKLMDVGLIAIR
T2 sequence (O95831 102-613): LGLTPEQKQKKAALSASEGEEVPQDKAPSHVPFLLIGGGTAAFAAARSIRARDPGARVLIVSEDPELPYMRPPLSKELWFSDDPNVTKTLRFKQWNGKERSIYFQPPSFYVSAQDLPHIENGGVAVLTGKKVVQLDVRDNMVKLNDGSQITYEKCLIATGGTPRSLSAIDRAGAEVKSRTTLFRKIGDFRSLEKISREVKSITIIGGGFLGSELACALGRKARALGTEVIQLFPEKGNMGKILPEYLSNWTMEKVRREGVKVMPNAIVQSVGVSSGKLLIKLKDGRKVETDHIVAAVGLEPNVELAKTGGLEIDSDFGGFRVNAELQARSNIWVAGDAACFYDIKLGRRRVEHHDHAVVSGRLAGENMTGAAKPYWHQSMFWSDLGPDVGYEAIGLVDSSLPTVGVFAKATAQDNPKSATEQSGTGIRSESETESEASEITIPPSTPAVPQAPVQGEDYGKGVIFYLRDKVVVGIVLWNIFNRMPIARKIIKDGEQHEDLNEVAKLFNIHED

For `C/C(=C\c1csc(C)n1)[C@@H]1C[C@@H]2O[C@]2(C)CCC[C@H](C)[C@H](O)[C@@H](C)C(=O)C(C)(C)[C@@H](O)CC(=O)N1` [ixabepilone], the IC90 (HCT-116 cells [1]) was 1.3 nM, the “relative sensitivity of P versus Q cells” value (HCT-116 cells [1]; P cells more sensitive) was > 83 fold and the tumor cures (HCT/VM46 xenograft; cured mice of group) was “did not produce any tumor cures”. It also gave a tumor growth delay (HCT/VM46 xenograft; mouse, in vivo) of 1.1 LCK.
In the case of `Cn1cncc1CN1C[C@@H](Cc2ccccc2)N(S(=O)(=O)c2ccccc2)Cc2cc(C#N)ccc21` [BMS-223999], the IC50 (FT) is reported as 1.1 nM, the “Activity in vivo, LCK (log cell kill) when no cures were achieved” value (HCT116 xenografts) is reported as 0.4 LCK and the “Activity in vivo, cures” value (HCT116 xenografts) is reported as 0/8. The IC50 [2] was 8 nM and the IC50 [3] was 530 nM.
In the case of `N#Cc1ccc2c(c1)CN(S(=O)(=O)CCCNC(=O)CCCCCNC(=O)CCCC[C@H]1SC[C@H]3NC(=O)N[C@H]31)CCN2Cc1cnc[nH]1` [BMS-236724], the “Peptide Hits Exp 1” value [4] is reported as 3, the “Peptide Hits Exp 2” value [4] is reported as 5 and the “Peptide Hits Exp 1” value (Protein phosphatase 1G) is reported as 4. The “Peptide Hits Exp 2” value (Protein phosphatase 1G) was 1, the “Peptide Hits Exp 1” value [5] was 15 and the “Peptide Hits Exp 2” value [5] was 18.
For `Cn1cncc1CN1C[C@@H](Cc2ccccc2)N(S(=O)(=O)c2cccs2)Cc2cc(C#N)ccc21` [BMS-225975], the proapoptotic activity (HCT-116 cells [6]) was “does not induce apoptosis”, the P/Q activity ratio (HCT-116 cells [1]) was 0.7 and the P/Q selectivity (HCT-116 cells [1]) was 11-100 1.4. For the same molecule, the “competition for the cross-linker site” value [7] was “able to compete”, the “Activity in vivo, LCK (log cell kill) when no cures were achieved” value (HCT116 xenografts) was 0.3 LCK and the “Activity in vivo, cures” value (HCT116 xenografts) was 0/8. It also gave an IC50 [2] of 12 nM and an IC50 [3] of 900 nM.
In the case of `O=c1[nH]cc(F)c(=O)[nH]1` [5-fluorouracil], the “preferential cytotoxicity P versus Q” value (HCT-116 cells [1]) is reported as “preferentially cytotoxic to P tumor cells”.
`CC(=O)O[C@H]1C(=O)[C@@]2(C)[C@H]([C@H](OC(=O)c3ccccc3)[C@]3(O)C[C@H](OC(=O)[C@H](O)[C@@H](NC(=O)c4ccccc4)c4ccccc4)C(C)=C1C3(C)C)[C@]1(OC(C)=O)CO[C@@H]1C[C@@H]2O` [paclitaxel] was tested, and the IC90 (HCT-116 cells [1]) was 17.8 nM and the “Q cell values (IC90)” value (HCT-116 cells [1]; Q cells) was “not reached”.
`N#Cc1ccc2c(c1)CN(S(=O)(=O)c1ccccc1)[C@H](Cc1ccccc1)CN2Cc1cnc[nH]1` [BMS-212347] was tested, and the IC50 (FT) was 2.4 nM, the P/Q selectivity (HCT-116 cells [1]) was 47 and the “Activity in vivo, cures” value (HCT116 xenografts) was 7/8. For the same molecule, the IC50 [2] was 41 nM and the IC50 [3] was 1200 nM.
In the case of `NC(=O)N1CCC(CC(=O)N2CCC([C@H]3c4ncc(Br)cc4CCc4cc(Cl)cc(Br)c43)CC2)CC1` [SCH66336], the P/Q activity ratio (HCT-116 cells [1]) is reported as 0.74.
With `Cn1cncc1[C@@](N)(c1ccc(Cl)cc1)c1ccc2c(c1)c(-c1cccc(Cl)c1)cc(=O)n2C` [R-115777] the P/Q activity ratio (HCT-116 cells [1]) was 0.83.
